# According to paper PMC9481570, “A small molecule antagonist of SMN disrupts the interaction between SMN and RNAP II” (Nature Communications, 2022):
# “And” between values parts separate entries of the source, which are not always exact repeats. Equal values may be shown once.
# Tests used:
# Test in all cases: Affinity-purification and mass spectrometry (AP-MS) chemical proteomics, all proteins;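 on Difference: 200 µM free competitor with 20 µM biotin probe overnight in lysate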
# Type in all cases: binding
# [1] = target: T1, proteins displaced from immobilized biotin-Cmpd 1 pulldowns (U2OS cell lysate) (Homo sapiens, UniProt O94925); conditions: GN=GLS (O94925)
# T1 construct: endogenous in cells; host or cells: U2OS
# T1 sequence (O94925 55-669): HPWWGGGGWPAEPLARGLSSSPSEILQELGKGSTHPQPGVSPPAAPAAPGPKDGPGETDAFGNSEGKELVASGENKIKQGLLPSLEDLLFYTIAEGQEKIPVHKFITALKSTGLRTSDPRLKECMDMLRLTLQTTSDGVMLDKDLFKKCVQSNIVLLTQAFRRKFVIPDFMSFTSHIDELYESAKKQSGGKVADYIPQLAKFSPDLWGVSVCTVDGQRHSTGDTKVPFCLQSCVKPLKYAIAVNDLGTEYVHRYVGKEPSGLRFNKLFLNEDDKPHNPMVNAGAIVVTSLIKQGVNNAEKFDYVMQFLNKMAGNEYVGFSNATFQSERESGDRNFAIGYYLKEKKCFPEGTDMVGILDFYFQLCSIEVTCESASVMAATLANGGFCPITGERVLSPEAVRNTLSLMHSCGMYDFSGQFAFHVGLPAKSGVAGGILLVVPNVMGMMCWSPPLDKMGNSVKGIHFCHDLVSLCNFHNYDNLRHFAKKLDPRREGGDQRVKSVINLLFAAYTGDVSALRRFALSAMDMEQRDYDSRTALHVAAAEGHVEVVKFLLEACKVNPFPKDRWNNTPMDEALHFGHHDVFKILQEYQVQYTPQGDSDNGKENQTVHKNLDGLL
# [2] = target: T2, proteins displaced from immobilized biotin-Cmpd 1 pulldowns (U2OS cell lysate) (Homo sapiens, UniProt P40939); conditions: GN=HADHA (P40939)
# T2 construct: endogenous in cells; host or cells: U2OS
# T2 sequence (P40939 37-763): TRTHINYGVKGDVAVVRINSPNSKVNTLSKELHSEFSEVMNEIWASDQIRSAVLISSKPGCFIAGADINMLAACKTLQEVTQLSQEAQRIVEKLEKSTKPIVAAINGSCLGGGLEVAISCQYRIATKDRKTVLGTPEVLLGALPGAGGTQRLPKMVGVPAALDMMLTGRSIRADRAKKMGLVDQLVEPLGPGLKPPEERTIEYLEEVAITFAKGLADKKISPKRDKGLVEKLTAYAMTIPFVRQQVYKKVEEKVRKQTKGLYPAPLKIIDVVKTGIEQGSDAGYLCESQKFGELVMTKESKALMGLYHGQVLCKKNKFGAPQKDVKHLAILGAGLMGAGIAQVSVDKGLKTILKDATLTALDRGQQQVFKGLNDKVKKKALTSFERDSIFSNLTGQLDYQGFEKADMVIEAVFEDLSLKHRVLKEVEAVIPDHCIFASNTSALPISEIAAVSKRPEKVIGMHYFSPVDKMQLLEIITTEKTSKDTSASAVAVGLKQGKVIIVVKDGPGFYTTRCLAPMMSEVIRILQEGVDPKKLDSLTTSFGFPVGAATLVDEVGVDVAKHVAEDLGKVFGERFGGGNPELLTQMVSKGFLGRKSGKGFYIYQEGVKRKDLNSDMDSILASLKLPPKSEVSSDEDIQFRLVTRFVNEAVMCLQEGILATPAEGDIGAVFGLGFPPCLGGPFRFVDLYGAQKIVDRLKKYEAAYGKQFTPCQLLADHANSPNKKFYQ
# [3] = target: T3, proteins displaced from immobilized biotin-Cmpd 1 pulldowns (U2OS cell lysate) (Homo sapiens, UniProt P09211); conditions: GN=GSTP1 (P09211)
# T3 construct: endogenous in cells; host or cells: U2OS
# T3 sequence (P09211 whole entry): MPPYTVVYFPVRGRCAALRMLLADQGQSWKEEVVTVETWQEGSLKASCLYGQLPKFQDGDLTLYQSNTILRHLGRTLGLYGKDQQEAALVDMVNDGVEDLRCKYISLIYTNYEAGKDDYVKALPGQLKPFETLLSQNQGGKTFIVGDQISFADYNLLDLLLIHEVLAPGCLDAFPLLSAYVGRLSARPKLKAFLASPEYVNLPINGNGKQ
# [4] = target: T4, proteins displaced from immobilized biotin-Cmpd 1 pulldowns (U2OS cell lysate) (Homo sapiens, UniProt Q9NZM5); conditions: GN=NOP53 (Q9NZM5)
# T4 construct: endogenous in cells; host or cells: U2OS
# [5] = target: T5, proteins displaced from immobilized biotin-Cmpd 1 pulldowns (U2OS cell lysate) (Homo sapiens, UniProt Q7Z2W9); conditions: GN=MRPL21 (Q7Z2W9)
# T5 construct: endogenous in cells; host or cells: U2OS
# [6] = target: T6, proteins displaced from immobilized biotin-Cmpd 1 pulldowns (U2OS cell lysate) (Homo sapiens, UniProt P20042); conditions: GN=EIF2S2 (P20042)
# T6 construct: endogenous in cells; host or cells: U2OS
# T6 sequence (P20042 whole entry): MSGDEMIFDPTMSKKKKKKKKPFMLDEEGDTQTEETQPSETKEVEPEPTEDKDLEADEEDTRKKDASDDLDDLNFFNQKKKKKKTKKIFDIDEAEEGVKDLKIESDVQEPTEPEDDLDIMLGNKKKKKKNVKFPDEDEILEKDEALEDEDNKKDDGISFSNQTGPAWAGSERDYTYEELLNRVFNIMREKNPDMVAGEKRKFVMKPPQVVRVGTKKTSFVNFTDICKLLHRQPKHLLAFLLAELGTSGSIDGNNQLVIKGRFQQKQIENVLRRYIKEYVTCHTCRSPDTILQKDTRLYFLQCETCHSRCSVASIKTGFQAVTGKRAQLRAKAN
# [7] = target: T7, proteins displaced from immobilized biotin-Cmpd 1 pulldowns (U2OS cell lysate) (Homo sapiens, UniProt P54098); conditions: GN=POLG (P54098)
# T7 construct: endogenous in cells; host or cells: U2OS
# T7 sequence (P54098 whole entry): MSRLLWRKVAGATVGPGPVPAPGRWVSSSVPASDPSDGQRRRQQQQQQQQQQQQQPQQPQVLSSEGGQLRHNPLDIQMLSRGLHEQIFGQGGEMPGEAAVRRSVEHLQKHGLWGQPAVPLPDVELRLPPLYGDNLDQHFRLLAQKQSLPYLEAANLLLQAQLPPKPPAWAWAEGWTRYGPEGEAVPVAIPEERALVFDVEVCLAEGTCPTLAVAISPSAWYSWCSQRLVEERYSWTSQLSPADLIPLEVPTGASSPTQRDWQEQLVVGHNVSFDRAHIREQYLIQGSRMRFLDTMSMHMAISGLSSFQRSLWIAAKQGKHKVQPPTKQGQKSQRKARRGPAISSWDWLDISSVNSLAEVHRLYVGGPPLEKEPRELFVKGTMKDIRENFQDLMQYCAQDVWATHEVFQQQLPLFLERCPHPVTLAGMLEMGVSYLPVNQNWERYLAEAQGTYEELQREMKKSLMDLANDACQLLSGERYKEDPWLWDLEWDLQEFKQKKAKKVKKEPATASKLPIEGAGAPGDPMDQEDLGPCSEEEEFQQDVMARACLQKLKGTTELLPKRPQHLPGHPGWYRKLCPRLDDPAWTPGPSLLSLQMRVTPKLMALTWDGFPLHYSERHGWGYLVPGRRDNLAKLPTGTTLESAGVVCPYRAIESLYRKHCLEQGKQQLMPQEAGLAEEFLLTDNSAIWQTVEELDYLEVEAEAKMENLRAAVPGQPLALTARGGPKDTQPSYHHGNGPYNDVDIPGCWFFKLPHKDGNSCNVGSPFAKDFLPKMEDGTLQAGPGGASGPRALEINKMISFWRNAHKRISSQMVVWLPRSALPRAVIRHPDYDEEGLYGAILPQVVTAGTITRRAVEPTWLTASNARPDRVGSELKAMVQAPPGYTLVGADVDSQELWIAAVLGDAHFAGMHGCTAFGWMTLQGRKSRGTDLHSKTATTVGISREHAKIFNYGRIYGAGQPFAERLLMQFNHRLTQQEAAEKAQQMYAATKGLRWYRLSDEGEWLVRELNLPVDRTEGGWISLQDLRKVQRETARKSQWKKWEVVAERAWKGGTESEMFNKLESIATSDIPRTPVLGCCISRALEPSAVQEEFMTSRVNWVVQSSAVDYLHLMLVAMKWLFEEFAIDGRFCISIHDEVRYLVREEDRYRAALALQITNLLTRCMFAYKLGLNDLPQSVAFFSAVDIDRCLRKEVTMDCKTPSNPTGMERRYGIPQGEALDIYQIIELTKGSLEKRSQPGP
# [8] = target: T8, proteins displaced from immobilized biotin-Cmpd 1 pulldowns (U2OS cell lysate) (Homo sapiens, UniProt O75616); conditions: GN=ERAL1 (O75616)
# T8 construct: endogenous in cells; host or cells: U2OS
# T8 sequence (O75616 44-437): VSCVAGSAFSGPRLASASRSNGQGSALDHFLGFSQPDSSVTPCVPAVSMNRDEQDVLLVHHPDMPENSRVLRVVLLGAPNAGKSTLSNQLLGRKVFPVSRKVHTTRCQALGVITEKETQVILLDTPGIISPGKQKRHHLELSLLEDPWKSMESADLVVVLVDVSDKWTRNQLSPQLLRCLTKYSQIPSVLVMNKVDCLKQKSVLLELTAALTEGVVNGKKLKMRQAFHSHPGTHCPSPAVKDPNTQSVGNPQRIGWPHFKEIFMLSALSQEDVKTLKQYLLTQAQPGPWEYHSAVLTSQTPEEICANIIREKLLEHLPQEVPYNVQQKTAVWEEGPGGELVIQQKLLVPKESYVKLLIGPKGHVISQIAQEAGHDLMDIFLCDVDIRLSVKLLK
# [9] = target: T9, proteins displaced from immobilized biotin-Cmpd 1 pulldowns (U2OS cell lysate) (Homo sapiens, UniProt Q14151); conditions: GN=SAFB2 (Q14151)
# T9 construct: endogenous in cells; host or cells: U2OS
# T9 sequence (Q14151 whole entry): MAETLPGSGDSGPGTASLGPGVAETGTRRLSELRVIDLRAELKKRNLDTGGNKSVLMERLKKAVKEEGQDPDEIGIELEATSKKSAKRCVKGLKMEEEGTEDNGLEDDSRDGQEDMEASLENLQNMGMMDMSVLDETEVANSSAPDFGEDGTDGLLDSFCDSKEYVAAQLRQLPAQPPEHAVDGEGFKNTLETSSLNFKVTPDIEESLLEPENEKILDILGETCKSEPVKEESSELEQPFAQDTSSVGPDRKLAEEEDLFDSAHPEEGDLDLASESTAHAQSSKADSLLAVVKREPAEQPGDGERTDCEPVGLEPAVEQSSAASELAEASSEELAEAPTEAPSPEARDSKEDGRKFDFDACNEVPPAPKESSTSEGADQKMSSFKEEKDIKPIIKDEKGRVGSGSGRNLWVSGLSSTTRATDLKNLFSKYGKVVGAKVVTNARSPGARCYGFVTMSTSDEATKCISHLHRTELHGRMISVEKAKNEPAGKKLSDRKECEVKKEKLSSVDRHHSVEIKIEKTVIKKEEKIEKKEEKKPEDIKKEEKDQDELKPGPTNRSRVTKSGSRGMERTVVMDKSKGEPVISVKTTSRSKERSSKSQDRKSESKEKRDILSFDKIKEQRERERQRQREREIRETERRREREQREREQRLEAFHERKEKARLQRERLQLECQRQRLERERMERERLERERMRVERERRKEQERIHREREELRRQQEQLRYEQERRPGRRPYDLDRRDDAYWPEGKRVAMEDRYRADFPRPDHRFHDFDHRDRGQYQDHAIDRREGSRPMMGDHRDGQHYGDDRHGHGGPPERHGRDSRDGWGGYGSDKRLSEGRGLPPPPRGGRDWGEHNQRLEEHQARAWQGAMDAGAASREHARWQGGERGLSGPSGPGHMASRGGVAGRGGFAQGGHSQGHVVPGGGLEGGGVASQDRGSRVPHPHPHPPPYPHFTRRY
# [10] = target: T10, proteins displaced from immobilized biotin-Cmpd 1 pulldowns (U2OS cell lysate) (Homo sapiens, UniProt P05109); conditions: GN=S100A8 (P05109)
# T10 construct: endogenous in cells; host or cells: U2OS
# T10 sequence (P05109 whole entry): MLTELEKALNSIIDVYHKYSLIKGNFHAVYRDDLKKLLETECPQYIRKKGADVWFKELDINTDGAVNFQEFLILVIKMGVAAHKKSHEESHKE
smiles,measurement,setting,value
"Cn1c2c(c(=N)c3c1CCC3)CCC2 [Compound 1, 4-methyl-2,3,4,5,6,7-hexahydrodicyclopenta[b,e]pyridin-8(1H)-imine]",Difference,"[1]; Cmpd minus DMSO, -LOG(P-value) 0.714958",1.117
same,iBAQ Cmpd,[1]; replicates 1-3,18.1344 and 18.3969 and 16.5727
same,Difference,"[2]; Cmpd minus DMSO, -LOG(P-value) 0.714126",0.947
same,iBAQ Cmpd,[2]; replicates 1-3,19.348 and 18.8178 and 18.412
same,Difference,"[3]; Cmpd minus DMSO, -LOG(P-value) 0.706691",-2.301
same,iBAQ Cmpd,[3]; replicates 1-3,19.2888 and 14.7277 and 18.6327
same,Difference,"[4]; Cmpd minus DMSO, -LOG(P-value) 0.867991",2.66
same,iBAQ Cmpd,[4]; replicates 1-3,18.4766 and 17.8155 and 17.9258
same,Difference,"[5]; Cmpd minus DMSO, -LOG(P-value) 0.745191",1.429
same,iBAQ Cmpd,[5]; replicates 1-3,17.7953 and 15.5869 and 17.7004
same,Difference,"[6]; Cmpd minus DMSO, -LOG(P-value) 0.750637",-2.049
same,iBAQ Cmpd,[6]; replicates 1-3,14.3581 and 16.9929 and 16.8192
same,Difference,"[7]; Cmpd minus DMSO, -LOG(P-value) 0.92162",0.489
same,iBAQ Cmpd,[7]; replicates 1-3,17.0695 and 17.0761 and 17.6776
same,Difference,"[8]; Cmpd minus DMSO, -LOG(P-value) 0.929321",2.334
same,iBAQ Cmpd,[8]; replicates 1-3,17.6381 and 15.7018 and 17.9385
same,Difference,"[9]; Cmpd minus DMSO, -LOG(P-value) 1.24711",1.435
same,iBAQ Cmpd,[9]; replicates 1-3,18.2139 and 16.8013 and 17.9077
same,Difference,"[10]; Cmpd minus DMSO, -LOG(P-value) 1.46412",-2.055
same,iBAQ Cmpd,[10]; replicates 1-3,21.5375 and 20.6129 and 20.1927
